Read-outs that look alike come from different tables or passages of the source.
How the values were obtained:
[1] = system: NCI-N87 gastric cancer cells; experiment: Payload cell viability dose response (CellTiter-Glo 2.0), NCI-N87 (Example 4); type: cell-based, human; conditions: for GI50: Homo sapiens
Procedure: (§1) Cell viability dose response was determined for exemplary payload compounds in HER2-amplified HCC1954 breast cancer cells and NCI-N87 gastric cancer cells.
(§2) HCC1954 (American Type Culture Collection (ATCC)) breast ductal carcinoma or NCI-N87 (ATCC) gastric carcinoma cells were plated at 500 cells/well in flat bottom 384-well tissue culture plates (Corning) in a total volume of 30 μL tissue culture medium supplemented with 10% fetal bovine serum (ThermoFisher Scientific). Cells were treated with a 4-fold serial dilution of compound from 10000 nM to 0.01 nM. Each concentration was tested in triplicate. At the time of treatment, a plate of untreated cells was evaluated using CellTiter-Glo® 2.0 Luminescent Cell Viability Assay according to the manufacturer's recommendations (Promega; #G9241). CellTiter-Glo® 2.0 reagent was added to the medium, incubated, and assayed on an EnVision Multilabel Reader (PerkinElmer). Values represent time zero (T0). The number of viable cells following 72 (T72) or 144 hours (T144) of compound treatment was also determined using the CellTiter-Glo®2.0 Luminescent Cell Viability Assay. Using the luminescence value at time zero (T0), DMSO control growth (C), and test growth in the presence of compound (T72 or T144), the percentage growth was calculated at each of the compound concentrations levels. Percentage growth inhibition was calculated as (e.g.): [(T144−T0)/(C−T0)]×100 for concentrations for which T144>/=T0 or [(T144−T0)/T0]×100 for concentrations for which T144<T0. The dose response curve plots were generated using Prism 8 (Graphpad) and fit using nonlinear regression analysis and the log(inhibitor) versus response-variable slope (four parameters).

[2] = system: HCC1954 breast cancer cells; experiment: Payload cell viability dose response (CellTiter-Glo 2.0), HCC1954 (Example 4); type: cell-based, human; conditions: for GI50: Homo sapiens
Procedure: as §1, §2

[3] = system: SLC25A19 mature transcript; experiment: In-cell splicing PD assay, NCI-N87; type: cell-based; conditions: Homo sapiens, NCI-N87, 6 h
Procedure: (§3) 4.1.2 In-Cell Splicing PD Assay
(§4) Splicing of the SLC25A19 mature transcript was also examined in HCC1954 and NCI-N87 cells treated with increasing concentrations of exemplary payload compounds.
(§5) HCC1954 or NCI-N87 cells (ATCC) were plated in RPM1+10% FBS media (ATCC) at 1000 cells per well at 20 μL per well. Cells were treated with compounds in a 4-fold dilution dose-response. After 6 hours, cells were PBS washed and lysed with 30 μL of CL buffer (IgePal CA-630, 5M NaCl, 1M Tris HCl 1M pH 7.4 in water) containing 25 μL/mL of RNAsin (Promega) and incubated for 20 min at RT on a rocker. Resulting mixture (1 μL) was used to assess splicing modulation in a Taqman Fast Virus 1-Step MasterMix (Applied Biosystems) reverse transcription PCR reaction with the following Taqman primers according to the manufacturer's recommendations: SLC25A19 (Invitrogen, Hs00222265_m1); RPLPO (Invitrogen, Hs99999902_m1).

[4] = system: SLC25A19 mature transcript; experiment: In-cell splicing PD assay, HCC1954; type: cell-based; conditions: Homo sapiens, HCC1954, 6 h
Procedure: as §3, §4, §5

[5] = NCI-N87, 72 h, read-out: CTG 72 h GI50
[6] = NCI-N87, 144 h, read-out: CTG 144 h GI50
[7] = HCC1954, 72 h, read-out: CTG 72 h GI50
[8] = HCC1954, 144 h, read-out: CTG 144 h GI50

Row | SMILES | GI50 [1, 5] [nM] | GI50 [1, 6] [nM] | CTG 72 h LD50 ([1]; NCI-N87, 72 h) [µM] | CTG 72 h Rmin ([1]; NCI-N87, 72 h) [%] | CTG 144 h LD50 ([1]; NCI-N87, 144 h) [µM] | CTG 144 h Rmin ([1]; NCI-N87, 144 h) [%] | CTG 72 h LD50 ([2]; HCC1954, 72 h) [µM] | CTG 72 h Rmin ([2]; HCC1954, 72 h) [%] | CTG 144 h LD50 ([2]; HCC1954, 144 h) [nM] | CTG 144 h Rm in ([2]; HCC1954, 144 h) [%] | GI50 [2, 7] [nM] | GI50 [2, 8] [nM] | IC50 [3] [nM] | IC50 [4] [nM]
1 | CO[C@H]([C@@H](C)[C@H]1O[C@]1(C)C[C@H](C)/C=C/C=C(\C)[C@H]1O[C@@H](CC(=O)NCCCC[C@@H](NC(=O)N2CCN(C)CC2)C(=O)O)CC[C@@H]1C)[C@@H](C)O [Compound H19] | > 10000 | 3270 | > 10 | 44.396 | > 10 | 17.442 | > 10 | 32.813 | > 10000 | 27.17 | 8990 | 7930 | > 10000 | > 10000
2 | CO[C@H]([C@@H](C)[C@H]1O[C@]1(C)C[C@H](C)/C=C/C=C(\C)[C@H]1O[C@@H](CC(=O)N[C@@H](CCNC(=O)N2CCN(C)CC2)C(=O)O)CC[C@@H]1C)[C@@H](C)O [Compound H15] | 6 | 3.5 | > 10 | −18.031 | 0.106186 | −82.661 | > 10 | −44.191 | 31.77 | −95.522 | 18.1 | 11.7 | 15.4 | 37.1
3 | CO[C@H]([C@@H](C)[C@H]1O[C@]1(C)C[C@H](C)/C=C/C=C(\C)[C@H]1O[C@@H](CC(=O)N[C@@H](CCCOC(=O)N2CCN(C)CC2)C(=O)O)CC[C@@H]1C)[C@@H](C)O [Compound H17] | 47 | 81.3 | > 10 | −15.164 | 0.912895 | −65.458 | > 10 | −48.872 | 275.218 | −96.54 | 139 | 126 | 114 | 135
4 | COC(=O)[C@H](CCNC(=O)N1CCN(C)CC1)NC(=O)C[C@H]1CC[C@H](C)[C@@H](/C(C)=C/C=C/[C@@H](C)C[C@@]2(C)O[C@@H]2[C@H](C)[C@@H](OC)[C@@H](C)O)O1 [Compound H16] | 6.76 | 3.62 | > 10 | −21.717 | 0.098186 | −86.757 | > 10 | −65.968 | 22.316 | −98.779 | 11.8 | 8.98 | 8.55 | 16.7
5 | CO[C@H]([C@@H](C)[C@H]1O[C@]1(C)C[C@H](C)/C=C/C=C(\C)[C@H]1O[C@@H](CNC(=O)[C@H]2CC[C@H](COC(=O)N3CCN(C)CC3)CC2)CC[C@@H]1C)[C@@H](C)O [Compound H22] | > 10000 | 5100 | > 10 | 48.181 | > 10 | 29.113 | > 10 | 82.229 | > 10000 | 71.431 | > 10000 | > 10000 | > 10000 | > 10000
6 | CO[C@H]([C@@H](C)[C@H]1O[C@]1(C)C[C@H](C)/C=C/C=C(\C)[C@H]1O[C@@H](CC(=O)N[C@@H](CCOC(=O)N2CCN(C)CC2)C(=O)O)CC[C@@H]1C)[C@@H](C)O [Compound H14] | 415 | 730 | > 10 | −2.467 | 7.944263 | −63.41 | > 10 | −42.359 | 2055.923 | −95.522 | 626 | 682 | 962 | 1350
